Source: PubChem BioAssay (NCI)
“And” between values parts separate entries of the source, which are not always exact repeats. Equal values may be shown once.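 Test compounds were applied to cells in 96-well plates for 48 hours at 5 doses. GI50 is the concentration that inhibits growth by half. Definition used: TGI = concentration required for complete inhibition of growth.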

Assays:
Test in all cases: growth of human tumour cells (NCI), 48 h
[1] = test system: 786-0 renal
[2] = test system: BT-549 breast
[3] = test system: CAKI-1 renal
[4] = test system: MCF7 breast
[5] = test system: NCI-H522 lung
[6] = test system: OVCAR-8 ovarian
[7] = test system: SK-MEL-2 melanoma
[8] = test system: SK-MEL-28 melanoma
[9] = test system: SW-620 colon
[10] = test system: UACC-62 melanoma

SMILES | GI50 [1] | TGI [1] | GI50 [2] | TGI [2] | GI50 [3] | TGI [3] [µM] | GI50 [4] | TGI [4] | GI50 [5] | GI50 [6] | TGI [6] | GI50 [7] | TGI [7] [µM] | GI50 [8] [µM] | TGI [8] [µM] | GI50 [9] | TGI [9] [µM] | GI50 [10] | TGI [10] | TGI [5] [µM]
Cc1ccc(C(=O)c2sc3nc4c(cc3c2N)CCCC4)c(C)c1 | 0.617 µM | > 100 µM | 1.2 µM | > 100 µM | 0.361 µM | > 100 | 0.162 µM | > 100 µM | 0.126 µM | 0.807 µM | > 100 µM | 0.429 µM | > 71.2 | 2.15 | > 100 | 0.265 µM | > 100 | 0.256 µM | > 100 µM | –
COc1cccc(-c2nn(-c3ccccc3)cc2-c2ccnc(NCCCNC(=O)c3cccc(C(F)(F)F)c3)c2)c1 | 3.75 µM | 15.1 µM | 2.84 µM | 9 µM | 6.27 µM | 32.5 | 3.54 µM | 18.5 µM | 2.58 µM | 4.67 µM | 20.1 µM | 7.23 µM | 23.6 | 5.45 | 25.3 | 4.35 µM | 31.5 | 3.58 µM | 16.2 µM | 12.2
COc1cccc(/C=C/c2nc3c(cnn3-c3ccccc3)c(=O)[nH]2)c1 | 12.4 µM | > 100 µM | > 72.9 µM | > 100 µM | > 45.6 µM | > 100 | 0.467 µM | > 100 µM | > 100 µM | > 54.7 µM | > 100 µM | > 100 µM | > 100 | > 100 | > 100 | > 31.4 µM | > 100 | > 100 µM | > 100 µM | > 100
O=C(CSCC(=O)N/N=C/c1ccccc1O)N/N=C\c1ccccc1O | 1.95 µM | 6.59 µM | 1.73 µM | 56.3 µM | 0.627 µM | 9.82 | 5.85 µM | > 100 µM | 3.61 µM | 1.92 µM | > 100 µM | 5.35 µM | > 100 | 8.05 | > 100 | 3.25 µM | > 100 | 1.61 µM | 7.13 µM | > 100
CCOC(=O)Nc1nc2ccccc2[nH]1 | 7.37 µM | > 100 µM | 6.03 µM | > 100 µM | 3.84 µM and 3.73 µM | > 100 | 3.63 µM and 3.15 µM | > 100 µM | 3.78 µM and 4.99 µM | 7.6 µM and 7.04 µM | > 100 µM | 3.44 µM and 4.49 µM | > 100 | 8.43 | > 100 | 3.9 µM and 3.17 µM | > 100 | 5.38 µM and 4.46 µM | > 100 µM | > 79.3
O=C(Nc1cccc(-n2cc(-c3ccncc3)c(-c3ccc(O)c(Cl)c3)n2)c1)c1ccc2c(c1)OCCO2 | 3.27 µM | > 100 µM | 4.92 µM | > 100 µM | 6.34 µM | > 100 | 4.24 µM | > 100 µM | 6.25 µM | 3.67 µM | > 100 µM | > 100 µM | > 100 | – | – | > 100 µM | > 100 | 7.96 µM | > 100 µM | > 100
C=CC(COC(=O)C(C)(C)OC(C)=O)c1ccc(OC(=O)C(C)C)c(OC)c1 (centres undefined) | – | > 24.9 µM | – | 22.5 µM | – | 4.07 | – | > 22.8 µM | – | – | > 89.3 µM | – | 25.5 | – | 35.5 | – | 52.8 | – | 27.8 µM | 6.38
O=C1/C=C/[C@@H](O)[C@@H]2C[C@@H](O)C[C@H]2/C=C/CCC[C@H](CCc2ccc3ncccc3c2)O1 | 0.218 µM | 0.504 µM | 0.402 µM | 16.2 µM | 0.282 µM | – | 0.27 µM | > 100 µM | 0.212 µM | 0.275 µM | > 47 µM | 0.266 µM | 0.654 | 0.0637 | 0.837 | 0.265 µM | 0.768 | 0.303 µM | 8.44 µM | 0.523
CN(C)C(=O)OCc1nc2c(N3CCOCC3)nc(-c3ccccc3)nc2n1C | 0.892 µM | 2.31 µM | 1.04 µM | 2.32 µM | 0.45 µM | 1.7 | 0.427 µM | 2.09 µM | 0.454 µM | 1.26 µM | 3.24 µM | 1.77 µM | 3.43 | 1.55 | 2.9 | 0.305 µM | 0.899 | 1.39 µM | 2.73 µM | 2.02
Cc1cc(-c2nnc(/C=C/c3ccc4c(c3)OCO4)o2)n[nH]1 | 16.7 µM | > 50 µM | 6.78 µM | 39.3 µM | 3.89 µM | > 50 | 15.1 µM | > 50 µM | 8.15 µM | 22.8 µM | > 50 µM | 12.1 µM | > 50 | 24.1 | > 50 | 2.85 µM | 19.8 | 15.3 µM | > 50 µM | 26.7
Cc1cc(C(=O)Nc2n[nH]c3ccccc23)n[nH]1 | > 100 µM | > 100 µM | > 100 µM | > 100 µM | 90.5 µM | > 100 | > 100 µM | > 100 µM | > 100 µM | > 100 µM | > 100 µM | > 100 µM | > 100 | > 100 | > 100 | > 100 µM | > 100 | > 100 µM | > 100 µM | > 100
N#Cc1ccc(-c2c(-c3ncn[nH]3)sc(N3CCOCC3)c2C#N)c(F)c1 | 0.457 µM | 12.1 µM | 3.84 µM | 39.2 µM | 0.432 µM | 15.6 | 0.135 µM | 17.7 µM | 1.17 µM | 1.85 µM | > 100 µM | 1.92 µM | 10.7 | 0.458 | 5.33 | 2.94 µM | 29.9 | 0.384 µM | 2.64 µM | 15
NCCCCCNc1noc(Cc2c[nH]c3cc(Br)ccc23)n1 | 5.24 µM | 27.1 µM | 2.43 µM | 24.4 µM | 6.84 µM | > 100 | 3.42 µM | 16.3 µM | 0.748 µM | 3.74 µM | 39.4 µM | 3.22 µM | 16.3 | 3.93 | 19.3 | 0.707 µM | 16.9 | 0.551 µM | 10.1 µM | 12.6
CC(=O)Oc1ccc2c(c1)[C@@]1(C)CCCC(C)(C)[C@@H]1CC2 | 18.1 µM | 32.8 µM | 36.5 µM | > 100 µM | 28 µM | > 100 | 34.6 µM | > 100 µM | 24.2 µM | 18.8 µM | 41.6 µM | 29.8 µM | > 100 | 19.3 | 49.8 | 28.2 µM | > 100 | 17.6 µM | 32.8 µM | 69.2
C/C=C/C/C=C/[C@H](C)C[C@H](O)[C@@H]1C[C@@H]2O[C@H]2/C=C/[C@@H]2OC(C)(C)O[C@H]2/C=C/C[C@H](C)CC(=O)O1 | 69.7 µM | > 100 µM | 16.3 µM | > 100 µM | 2.9 µM | 31.1 | 25.5 µM | > 100 µM | 3.6 µM | 3.7 µM | > 100 µM | 39.3 µM | > 100 | 47.8 | > 100 | 22.7 µM | > 100 | 4.31 µM | 20.2 µM | 31.9
CC(C)c1ccc(C2NC(=S)NC3=C2c2ccccc2C3=O)cc1 (centres undefined) | – | > 60 µM | – | 31.6 µM | – | > 58.5 | – | 23.1 µM | – | – | > 62.1 µM | – | 41.7 | – | 57.9 | – | > 78.2 | – | > 52.8 µM | 41.9
CN1CCN(c2ccc(OC(F)(F)F)c(Nc3ncc4c(n3)-c3c(c(C(N)=O)nn3CCO)CC4)c2)CC1 | 0.428 µM and 0.466 µM | 32.4 µM and > 10 µM | 0.0875 µM and 0.176 µM | 18 µM and > 10 µM | 0.584 µM and 0.831 µM | > 44.8 | 0.0235 µM and 0.0357 µM | 15.7 µM and > 10 µM | 0.03 µM and 0.0265 µM | 0.0506 µM and 0.0624 µM | 61.5 µM and > 4.59 µM | 0.0543 µM | > 10 | 0.738 | > 10 | 0.0273 µM and 0.0316 µM | > 84.3 | 0.0454 µM and 0.123 µM | 21.1 µM and > 4.66 µM | –
Nc1ccccc1C#C/C=C\C#CC#C/C=C\C#Cc1ccccc1N | 9.76 µM | 24.6 µM | 5.03 µM | 25.9 µM | 2.74 µM | 11.8 | 4.6 µM | > 100 µM | 3.93 µM | 4.8 µM | 29.5 µM | 14.2 µM | 65.3 | 14.6 | 36.7 | 7.54 µM | 30.7 | 2.18 µM | 13.1 µM | 16
O=[N+]([O-])c1cccc(-c2nc(-c3ccc(Cl)cc3Cl)cn2-c2ccccc2)c1 | 0.995 µM | 2.88 µM | 0.0695 µM | > 22.1 µM | 0.477 µM | 1.21 | 0.909 µM | 4.02 µM | 3.25 µM | 0.947 µM | 2.64 µM | 1.9 µM | > 11.8 | 6.76 | 24.2 | 0.617 µM | 1.22 | 6.73 µM | > 33.3 µM | > 20.2
Cc1ccc(Nc2cc(Cl)c([N+](=O)[O-])cc2[N+](=O)[O-])cc1 | 3.97 µM | 14 µM | 3.72 µM | 11.8 µM | 4.19 µM | 17.4 | 2.7 µM | 7.68 µM | 0.805 µM | 3.37 µM | 13.9 µM | 3.31 µM | 8.94 | 2.77 | 7.27 | 2.35 µM | 6.82 | 4.13 µM | 15.6 µM | 2.15
N#CC1=C(N)NC(=S)NC1c1ccc(-c2ccc(-c3nc4ccccc4o3)cc2)s1 (centres undefined) | 11.1 µM | 22.4 µM | 17.5 µM | 47.6 µM | 10.1 µM | 36.4 | 6.7 µM | 19.2 µM | 9.65 µM | 10.1 µM | 22.4 µM | 9.2 µM | 28.8 | – | – | 21.3 µM | > 50 | 9.2 µM | 21.3 µM | 20.8
C=C1C(=O)OC2C1C(OC(=O)/C(C)=C/C)CC(O)(CCl)C1C(O)C=C(C)C21O (centres undefined) | – | 18.4 µM | – | 23.4 µM | – | 11.4 | – | 16.7 µM | – | – | 37.2 µM | – | > 50.3 | – | 35 | – | 15.7 | – | 25.5 µM | 3.29
Cc1ccc(C(=O)NCCCOc2ccc(N3C(N)=NC(N)=NC3(C)C)cc2Cl)cc1S(=O)(=O)F | 80 µM | > 100 µM | 43.1 µM | > 100 µM | > 100 µM | > 100 | 22.4 µM | > 100 µM | 61.7 µM | 85.8 µM | > 100 µM | > 100 µM | > 100 | 74.7 | > 100 | 10.2 µM | > 100 | 9.39 µM | > 100 µM | > 100
COc1ccc(/C(C)=N/NC(=O)CSc2nc3ccccc3c(=O)n2CCc2ccc(S(N)(=O)=O)cc2)cc1 | 1.79 µM | 3.44 µM | 1.66 µM | 3.74 µM | 2.07 µM | 4.53 | 2.95 µM | 11.2 µM | 2.26 µM | – | – | 2.58 µM | 6.68 | 1.75 | 3.3 | 2.28 µM | 5.01 | 2.2 µM | 4.93 µM | 6.75
NCCCOc1cc2ccccc2cc1C(=O)Nc1ccc(Cl)cc1OC(=O)c1cc2ccccc2cc1OCCCN | 0.172 µM | 0.327 µM | 1.66 µM | 3.1 µM | 1.4 µM | 4.12 | 0.173 µM | 0.332 µM | 0.235 µM | – | – | 0.312 µM | 1.2 | 0.382 | 0.949 | 0.181 µM | 0.345 | 1.44 µM | 2.85 µM | 0.639
